Reference: patent publication US7579006B2, “Method of treating immune pathologies with low dose estrogen” (Oregon Health and Science University, priority 2000, dated 2009)

Columns and labels:
female SJL mice = experiment: EAE induced with PLP 139-151 in female SJL mice (clinical scores, spinal cord histopathology); assay type: in vivo; settings: for Demyelinated foci/section / Inflammatory foci/section: spinal cord at peak of disease
male SJL mice = experiment: EAE induced with PLP 139-151 in male SJL mice; assay type: in vivo
Tg female mice = experiment: EAE in BV8S2 transgenic (Tg) female mice; assay type: in vivo; settings: for inhibition of EAE: Tg females
splenic T cells = experiment: Splenic T cell proliferation and cytokine responses of treated Tg mice with EAE; assay type: in vivo; settings: 0.36 mg pellet, average
Method: Proliferation assay. Spleens (SPL) were removed surgically, and single cell suspensions were prepared. Proliferative responses of T cells were determined in 96-well microtiter plates by incubating 4×10^5 spleen cells plus antigen at an optimal concentration of 20 μg/well. Cultures were incubated for 72 hr at 37° C. and 7% CO2, the last 18 hr in the presence of 0.5 μCi ^3H-thymidine. Cells were harvested onto glass fiber filters, and thymidine uptake was determined by liquid scintillation. Mean cpm±SEM were calculated from triplicate wells. The stimulation index (SI) was obtained by dividing cpm from antigen-stimulated wells by cpm from wells with no antigen. SI in cultures stimulated with GST alone was subtracted from the SI induced with GST-BV8S2 protein.
Proliferation assay. Proliferation responses of splenic T cells were determined essentially as described in Example II, except that antigen was used at an optimal concentration of 50 μg/ml.

Lymph node CD3+ T cells = experiment: FACS of chemokine receptors on lymph node CD3+ T cells; assay type: in vivo, mice; settings: 0.36 mg pellet
Method: Flow cytometry. Lymph node cells from sham and 17β-estradiol treated animals with EAE were washed with PBS/2% FCS/0.2% NaN3 and first incubated on ice for 30 min with Fcγ III/II receptor blocking monoclonal antibody (PharMingen), then stained with PE-conjugated anti-CD3 (PharMingen). After 20 min of incubation with anti-CD3, the cells were fixed and permablized using Cytofix/Cytoperm (PharMingen). Subsequently, cells were incubated with anti-CCR1, anti-CCR2, anti-CCR3, anti-CCR4 and anti-CCR5 goat anti-mouse polyclonal antibodies (Santa Cruz Biotechnology Inc.; USA) for 30 min on ice. After washing, cells were stained with FITC-conjugated anti-goat monoclonal antibodies (Sigma) for an additional 30 min on ice. Cells were analyzed using a FACS-Scan (Becton Dickinson). Propidium iodide and forward/side scatter gating were used to exclude dead cells.

C57BL/6 mice = experiment: EAE induced with MOG 35-55 in C57BL/6 mice (clinical, histopathology); assay type: in vivo
Method: (§1) Estrogen treatment. Sixty-day release pellets containing 2.5 mg of 17β-estradiol (E2) or vehicle were implanted subcutaneously (s.c) in the scapular region behind the neck using a 12-gauge trochar as described by the manufacturer (Innovative Research of America, Sarasota, Fla.). The mice were implanted one week prior to immunization with MOG 35-55. The concentration of E2 expected in the serum is between 1,500-2,000 pg/ml, which is approximately 5 times less than the levels found during pregnancy.
(§2) Induction of EAE. C57BL/6 and cytokine deficient mice were inoculated s.c in the flanks with 0.2 ml of an emulsion containing 200 μg of MOG 35-55 in saline and an equal volume of complete Freund's Adjuvant (CFA) containing 400 μg of Mycobacterium tuberculosis H37RA (Difco Laboratories, Detroit, Mich.). Disease induction required i.v. administration of pertussis toxin on the day of immunization (25 ng/mouse) and 2 days later (67 ng/mouse). The mice were assessed daily for clinical signs of EAE according to the 7 point scale described in Example I.
(§3) Histopathology. Histopathologic assessment of spinal column section was performed essentially as described in Example I, except that sections were stained with either luxol fast blue-periodic acid schiff-hematoxylin or silver nitrate prior to analysis.
(§4) Statistical analysis. Significant differences in incidence and mortality between untreated and E2 treated mice were assessed by Chi-square analysis. Difference in onset was determined using the two-tailed Student t test. Differences in peak score and cumulative disease index (CDI) were assessed by the Mann-Whitney test. Statistical significance of the frequency of cytokine secreting cells was analyzed using Student's t test for comparisons of two means. Differences in the expression of chemokine and cytokine mRNA were also determined using the Student t test. Values of p<0.05 were considered significant.

IL-4 KO mice = experiment: EAE induced with MOG 35-55 in IL-4 KO mice (clinical, histopathology); assay type: in vivo; settings: 2.5 mg pellet
Method: as §1, §2, §3, §4

[1] = 0.36 mg pellet, intact Tg females (Example III)
[2] = non-ovariectomized Tg females, BV8S2 with weekly boosting, E2 0.36 mg pellets

C[C@]12CC[C@@H]3c4ccc(O)cc4CC[C@H]3[C@@H]1CC[C@@H]2O [17β-estradiol]
CDI (cumulative disease index) (female SJL mice; 0.025 mg/pellet (diestrus)): 19.2 ± 10.0
Incidence (female SJL mice; 0.025 mg/pellet (diestrus)): 15/18
Incidence (%) (female SJL mice; 0.025 mg/pellet (diestrus)): (83%)
Onset (female SJL mice; 0.025 mg/pellet (diestrus)): 15.8 ± 3.5 days
Peak (disease score) (female SJL mice; 0.025 mg/pellet (diestrus)): 3.6 ± 1.3
Relapse (female SJL mice; 0.025 mg/pellet (diestrus)): 5/9
Relapse (%) (female SJL mice; 0.025 mg/pellet (diestrus)): (56%)
CDI (cumulative disease index) (female SJL mice; 0.1 mg/pellet (diestrus)): 8.9 ± 3.4
Incidence (female SJL mice; 0.1 mg/pellet (diestrus)): 12/19
Incidence (%) (female SJL mice; 0.1 mg/pellet (diestrus)): (63%)
Onset (female SJL mice; 0.1 mg/pellet (diestrus)): 14.5 ± 2.0 days
Peak (disease score) (female SJL mice; 0.1 mg/pellet (diestrus)): 2.0 ± 0.9
Relapse (female SJL mice; 0.1 mg/pellet (diestrus)): 2/9
Relapse (%) (female SJL mice; 0.1 mg/pellet (diestrus)): (22%)
Demyelinated foci/section (female SJL mice; 0.36 mg pellet): 0.5 ± 0.3 foci/section
Inflammatory foci/section (female SJL mice; 0.36 mg pellet): 1.3 ± 0.8 foci/section
CDI (cumulative disease index) (female SJL mice; 0.36 mg/pellet (estrus)): 9.8 ± 1.9
Incidence (female SJL mice; 0.36 mg/pellet (estrus)): 15/19
Incidence (%) (female SJL mice; 0.36 mg/pellet (estrus)): (79%)
Onset (female SJL mice; 0.36 mg/pellet (estrus)): 15.1 ± 1.3 days
Peak (disease score) (female SJL mice; 0.36 mg/pellet (estrus)): 2.5 ± 0.6
Relapse (female SJL mice; 0.36 mg/pellet (estrus)): 2/9
Relapse (%) (female SJL mice; 0.36 mg/pellet (estrus)): (22%)
Demyelinated foci/section (female SJL mice; 2.5 mg pellet): 0.5 ± 0.4 foci/section
Inflammatory foci/section (female SJL mice; 2.5 mg pellet): 0.6 ± 0.8 foci/section
CDI (cumulative disease index) (female SJL mice; 2.5 mg/pellet (pregnancy)): 7.5 ± 7.9
Incidence (female SJL mice; 2.5 mg/pellet (pregnancy)): 4/10
Incidence (%) (female SJL mice; 2.5 mg/pellet (pregnancy)): (40%)
Onset (female SJL mice; 2.5 mg/pellet (pregnancy)): 13.8 ± 0.5 days
Peak (disease score) (female SJL mice; 2.5 mg/pellet (pregnancy)): 2.0 ± 2.1
Relapse (female SJL mice; 2.5 mg/pellet (pregnancy)): 0/4
Relapse (%) (female SJL mice; 2.5 mg/pellet (pregnancy)): (0%)
comparison of E2 and E3 in incidence or severity of EAE (female SJL mice; Fisher exact test, same animal model): equally protective
CDI (male SJL mice; 0.36 mg/pellet): 6.4 ± 5.1
Incidence (male SJL mice; 0.36 mg/pellet): 3/4
Incidence (%) (male SJL mice; 0.36 mg/pellet): 75%
Onset (male SJL mice; 0.36 mg/pellet): 15.3 ± 3.2 days
Peak (disease score) (male SJL mice; 0.36 mg/pellet): 2.1 ± 2.4
Incidence (male SJL mice; 2.5 mg/pellet): 0/4
Incidence (%) (male SJL mice; 2.5 mg/pellet): 0%
CDI (Tg female mice; [1]): 40.4 ± 7.1
Incidence (Tg female mice; [1]): 15/18
Onset (Tg female mice; [1]): 17.4 ± 1.8
Peak (Tg female mice; [1]): 2.5 ± 0.5
inhibition of EAE (Tg female mice; 0.36 mg pellets): only moderate inhibition
inhibition of EAE (Tg female mice; 15 mg pellets): marked but incomplete inhibition of EAE
Average CDI (10-30) (Tg female mice; [2]): 37.3 ± 6.2^A
Incidence (Tg female mice; [2]): 25/33
Mortality (Tg female mice; [2]): 1/33
Onset (Tg female mice; [2]): 15.1 ± 2.1A
Peak (Tg female mice; [2]): 3.6 ± 0.7^A
inhibition of proliferation of MBP-Ac1-11 specific T cells (splenic T cells): about 47%
CCR2 staining of lymph node CD3+ T cells (Lymph node CD3+ T cells): No difference
percentage of CCR5 positive lymph node CD3+ T cells (Lymph node CD3+ T cells; sham 35+4, p=0.03, in %): 27+2
percentage of CCR1 positive lymph node CD3+ T cells (Lymph node CD3+ T cells; sham 91+6%, p=0.02): 77+2%
CDI (C57BL/6 mice; B6, 2.5 mg pellet): 15.1 ± 17.0
Incidence (C57BL/6 mice; B6, 2.5 mg pellet): 19/31
Mortality (C57BL/6 mice; B6, 2.5 mg pellet): 0/31
Onset (C57BL/6 mice; B6, 2.5 mg pellet): 20.8 ± 3.7
Peak Score (C57BL/6 mice; B6, 2.5 mg pellet): 4.2 ± 1.2
Inflammatory foci/section (C57BL/6 mice; C57BL/6, 2.5 mg pellet, spinal cord): 0.0 ± 0.0 Foci/Section
CDI (IL-4 KO mice; IL-4 KO): 18.4 ± 22.2
Incidence (IL-4 KO mice; IL-4 KO): 8/11
Mortality (IL-4 KO mice; IL-4 KO): 0/11
Onset (IL-4 KO mice; IL-4 KO): 20.6 ± 4.9
Peak Score (IL-4 KO mice; IL-4 KO): 4.4 ± 1.0
Inflammatory foci/section (IL-4 KO mice; IL-4KO, spinal cord): 0.0 ± 0.0 Foci/Section
